System: isolated heart tissue
Experiment: reduction of calcium-induced contraction of isolated heart tissue in vitro (calcium channel blocking activity)
Settings: degree of reduction of contraction of an isolated heart tissue induced by an addition of calcium ions in vitro

CCOC(=O)C1=C(COCCN[C@@H](CC(=O)O)C(=O)O)NC(C)=C(C(=O)OC)C1c1ccccc1Cl (stereo partly shown) [Compound of formula (1), N-(2-{[4-(2-chlorophenyl)-3-(ethoxycarbonyl)-5-(methoxycarbonyl)-6-methyl-1,4-dihydro-2-pyridinyl]methoxy}ethyl)aspartic acid]
calcium channel blocking activity (ability to inhibit the movement of calcium into a cell): has been shown

— US6479525B2, “Aspartate derivative of amlodipine” (Synthon BV, priority 2000, dated 2002)
